Experimental data reported in paper PMC10338474 (Nature Communications, 2023).
Several values for one entry are separate records, joined by “and”; a condition that tells them apart may be missing. Equal values may be shown once. Entries after “also recorded” stand apart in the source; their conditions may differ. Read-outs that look alike come from different tables or passages of the source.

How the values were obtained:
[1] = target: EPAC1^GEF (Homo sapiens, UniProt O95398); settings: cited from earlier work
[2] = target: EPAC1^α-CNB-GEF (Homo sapiens, UniProt O95398); settings: for Dmax (largest protein dimension): EPAC1^α-CNB-GEF with the single ligand (cAMP 1 mM/200 μM or CE3F4 100 μM racemic mix)
Protocol: All small angle X-ray scattering (SAXS) data were obtained from size exclusion chromatography-SAXS (SEC-SAXS) experiments on the SWING beamline (SOLEIL synchrotron, France), using the EPAC1^α-CNB-GEF construct. EPAC1 was used at a concentration of 60 μM to obtain high SAXS intensities. Samples were injected on high-performance liquid chromatography (HPLC) size exclusion column (BioSEC-3 300 Å, Agilent Technologies, Inc.) equilibrated with the elution buffer (20 mM Tris-HCl pH 8.0, 150 mM NaCl, 0.5 mM EDTA). […] Data reduction to absolute units, frame averaging, and subtraction were done using the FOXTROT program suite (SOLEIL synchrotron). Frames corresponding to the high-intensity fractions of the peak and having a constant radius of gyration (Rg) within error were averaged. […] Rg values were evaluated by Guinier Wizard using the data within the range of Guinier approximation sRg < 1.3 and by Distance Distribution Wizard, both of which are modules of the PRIMUS program. The maximum distance Dmax was estimated with PRIMUS and refined by trial and error with GNOM. The distance distribution functions were calculated with GNOM. SAXS profiles were compared with DATCMP (ATSAS suite).

[3] = system: isolated CNB domain of EPAC1; settings: NMR; without competing with cAMP; cited from earlier work
[4] = system: EPAC1^α-CNB-GEF; settings: cited from earlier work
[5] = system: arrhythmia in rats; settings: cited from earlier work
[6] = system: arrhythmia in mice; settings: cited from earlier work
[7] = target: T1, EPAC1^FL (Homo sapiens, UniProt O95398); test: Liposome flotation binding assay of EPAC1^FL
T1 construct: Human full-length EPAC1 (EPAC1^FL) was cloned into a pET28a vector (6xHis tag in N-terminus); made in house; host or cells: E. coli BL21 (DE3) pG-KJE8
T1 sequence (O95398 1-881 isoform O95398-3): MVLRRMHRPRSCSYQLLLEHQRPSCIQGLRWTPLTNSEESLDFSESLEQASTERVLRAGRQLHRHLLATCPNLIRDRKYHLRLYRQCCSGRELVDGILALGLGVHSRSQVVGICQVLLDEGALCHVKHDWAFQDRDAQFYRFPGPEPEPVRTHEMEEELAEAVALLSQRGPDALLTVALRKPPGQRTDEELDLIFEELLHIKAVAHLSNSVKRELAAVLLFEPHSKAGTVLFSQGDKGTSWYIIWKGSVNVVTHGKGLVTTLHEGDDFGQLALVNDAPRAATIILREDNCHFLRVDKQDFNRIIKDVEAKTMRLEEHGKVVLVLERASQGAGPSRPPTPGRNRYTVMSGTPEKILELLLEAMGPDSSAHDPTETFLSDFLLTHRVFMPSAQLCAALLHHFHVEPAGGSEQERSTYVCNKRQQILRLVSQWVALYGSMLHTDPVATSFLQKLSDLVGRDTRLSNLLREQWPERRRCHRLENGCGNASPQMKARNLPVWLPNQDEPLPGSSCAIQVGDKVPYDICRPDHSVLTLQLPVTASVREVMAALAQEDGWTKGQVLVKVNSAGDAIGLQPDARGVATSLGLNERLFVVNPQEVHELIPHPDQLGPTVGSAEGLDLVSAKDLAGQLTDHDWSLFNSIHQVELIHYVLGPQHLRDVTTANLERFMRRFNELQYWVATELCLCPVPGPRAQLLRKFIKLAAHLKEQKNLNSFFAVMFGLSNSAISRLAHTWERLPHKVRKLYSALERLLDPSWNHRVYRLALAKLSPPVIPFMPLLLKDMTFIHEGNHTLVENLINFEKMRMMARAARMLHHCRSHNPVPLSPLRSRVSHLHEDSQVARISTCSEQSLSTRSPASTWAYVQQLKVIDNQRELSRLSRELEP

[8] = system: Rap1 GTPase in cardiomyocytes; parameters: method as in PMID 23139415; settings: cited from earlier work
[9] = target: T1, EPAC1^FL; test: Nucleotide exchange kinetics assay (BODIPY-GDP dissociation from Rap1) with full-length EPAC1; type: biochemical; settings: for increase in affinity, PM liposomes vs solution: ratio of apparent KD
Protocol: Liposomes were added at 100 μM (total lipids).
Nonlinear regression based on a straight line model was performed with GraphPad Prism. EPAC1 pseudo first order catalytic efficiencies kcat/KM were deduced from the slopes of the curves, according to the Michaelis–Menten formalism. […] Nonlinear regression based on a sigmoidal model was performed with GraphPad Prism. KD and kmax were deduced from the EC50 and top values of the curves, respectively.

[10] = system: EPAC1; settings: cited from earlier work
[11] = target: EPAC1^CNB-GEF (Homo sapiens, UniProt O95398); settings: in solution; Supplementary Fig. 4d
Protocol: For kinetics assays, the Rap1 GTPase was loaded with BODIPY-FL-GDP (Jena Bioscience) prior to nucleotide exchange by incubating 50 μM Rap1 with 250 μM BODIPY-GDP and 10 mM EDTA for 30 min at room temperature. Nucleotide exchange was stopped by the addition of 75 mM MgCl2. Removal of excess nucleotides and buffer exchange were done on a PD SpinTrap G-25 (GE HealthCare Life Science). Nucleotide exchange kinetics were monitored by following the decay of BODIPY-GDP fluorescence upon replacement by GTP, using excitation and emission wavelengths of 485 and 530 nm, respectively. Measurements were carried out at 30 °C on a Cary Eclipse fluorimeter (Varian) under stirring in 800 μL cuvettes, or in microplate wells (150 μL) on a FLEXstation (Molecular Devices). […] Liposomes were added at 100 μM (total lipids). For kinetics in solution, kobs values were determined from a mono-exponential fit. […] In this case, kobs values corresponding to the fast component were used.

[12] = target: CNB domain-containing EPAC1 constructs (Homo sapiens, UniProt O95398); settings: Supplementary Fig. 2c
[13] = target: Rap1/EPAC1^α-CNB-GEF complex (Homo sapiens, UniProt O95398); settings: cAMP 1 mM, EDTA, DMSO
Protocol: EPAC1^α-CNB-GEF was used at 25 μM in all experiments. […] Proteins samples were injected into a 25 mL Superdex 200 gel filtration column (GE Healthcare) at 0.5 mL/min. Fractions were analyzed by SDS-PAGE.

## CC1CCc2c(cc(Br)c(F)c2Br)N1C=O (stereo not shown) [CE3F4]
[1]
  inhibition of the GEF domain of EPAC1 alone: does not inhibit
[2]; +cAMP +CE3F4
  Rg, Guinier analysis: 33.41 Å
  Rg, P(r) analysis: 33.84 Å
[2]
  Dmax (largest protein dimension): 114 Å
[2]; single ligand
  Rg, Guinier analysis: 32.58 Å
  Rg, P(r) analysis: 32.86 Å
[3]
  binding to the isolated CNB domain: binds
[4]
  in vitro activation of Rap1 by EPAC1^α-CNB-GEF: inhibits
[5]
  arrhythmia: prevents
[6]
  arrhythmia: prevents
[7]; Fig. 4f left, without cAMP, CE3F4 50 μM
  Binding (%) of EPAC1^FL to PM liposomes, DMSO set to 100%: 81%
[8]
  activation of the Rap1 GTPase in cardiomyocytes: efficiently inhibits

## Nc1ncnc2c1ncn2[C@@H]1O[C@@H]2COP(=O)(O)O[C@H]2[C@H]1O [cAMP, cyclic adenosine monophosphate]
[9]
  increase in affinity, PM liposomes vs solution: 278 fold
[2]
  Dmax (largest protein dimension): 130 Å
[2]; single ligand
  Rg, Guinier analysis: 34.91 Å
  Rg, P(r) analysis: 35.53 Å
[10]; read-out: half-maximal activation of EPAC1
  EC50: […]
[11]
  effect of cAMP on intrinsic GEF activity of EPAC1^CNB-GEF: increased
[7]; flotation assay, 1 mM cAMP
  effect of addition of cAMP on EPAC1^FL binding to PS-PIP2 liposomes with cholesterol: no discernible effect
[12]
  effect of cAMP on binding of CNB domain-containing EPAC1 constructs to PM liposomes: does not increase
[13]
  formation of the Rap1-EPAC1^α-CNB-GEF complex: readily observed

## CO[C@@H]1[C@@H]2OP(=O)(O)OC[C@H]2O[C@H]1n1c(Sc2ccc(Cl)cc2)nc2c(N)ncnc21 [compound 007, 8-(4-chlorophenylthio)−2’-O-methyl-cAMP]
[9]
  increase of kmax, PM liposomes vs solution: 12.3 fold and 12 fold
  increase in affinity, PM liposomes vs solution: 107 fold
[9]; in solution, Supplementary Table 5 mean
  Kd: 1.57 µM
[10]; in solution, in vitro
  maximal activity (kmax) compared to cAMP: threefold; also recorded: three times higher
